Patent publication US20110165115A1, “SYNERGISTIC ATTRACTANTS FOR PESTIFEROUS SOCIAL INSECTS” (STERLING INTERNATIONAL INC., priority 2010, published 2011)

Legend:
[1] = test system: paper wasps and yellowjackets; assay: Field trapping Experiment 2; format: in vivo, V. pensylvanica, V. vulgaris and P. dominulus; settings: Exp 2
Description: Three field trapping experiments were carried out during late July to early August 2009, in residential and woody areas around Spokane, Wash., USA, using the newly marketed Rescue® W•H•Y traps (www.rescue.com). As used herein, the W•H•Y trap is a trap in accordance with the description of United States Patent Application Publication No. 2009/0151228. The W•H•Y trap has a top chamber and a bottom chamber. The top chamber is baited with two attractants—one of which is a solid contained in a vial (2-methyl-1-butanol) and the other a liquid mixed with water (acetic acid), herein referred to as the W•H•Y top attractant. The bottom chamber is baited with a liquid attractant (heptyl butyrate) poured onto a cotton pad, herein referred to as the W•H•Y bottom attractant. Separation of the top and bottom attractants (otherwise antagonistic to each other when released from the same chamber) in two chambers was a design feature of this trap and creates two focal attraction sources from one trap for different species of wasps, hornets, and yellowjackets. Traps were hung 1.5-2.0 m above the ground on either the fence or tree branches ca. 5 m apart within each trap line. For each trapping experiment, six sets of traps were deployed with their initial trap positions within each set being randomized. […]

yellowjackets = assay: Field trapping Experiment 1, top chamber catches; format: in vivo; settings: Exp 1; HIPV combined with W•H•Y attractant (acetic acid and 2-methyl-1-butanol) in the top chamber
Description: (§1) Three field trapping experiments were carried out during late July to early August 2009, in residential and woody areas around Spokane, Wash., USA, using the newly marketed Rescue® W•H•Y traps (www.rescue.com). As used herein, the W•H•Y trap is a trap in accordance with the description of United States Patent Application Publication No. 2009/0151228. The W•H•Y trap has a top chamber and a bottom chamber. The top chamber is baited with two attractants—one of which is a solid contained in a vial (2-methyl-1-butanol) and the other a liquid mixed with water (acetic acid), herein referred to as the W•H•Y top attractant. The bottom chamber is baited with a liquid attractant (heptyl butyrate) poured onto a cotton pad, herein referred to as the W•H•Y bottom attractant. Separation of the top and bottom attractants (otherwise antagonistic to each other when released from the same chamber) in two chambers was a design feature of this trap and creates two focal attraction sources from one trap for different species of wasps, hornets, and yellowjackets. Traps were hung 1.5-2.0 m above the ground on either the fence or tree branches ca. 5 m apart within each trap line. For each trapping experiment, six sets of traps were deployed with their initial trap positions within each set being randomized. To minimize positional effects and obtain more replications, wasp collections and trap re-randomization were carried out when ≧10-20 wasps were caught in the best trap. Each replicate lasted several days depending on wasp flight activity. Captured wasps were removed from the traps and kept in the zip-bags before taking back to the laboratory for recording of the species, gender status, and catch.
(§2) Experiment 3 (Aug. 5-13, 2009) was conducted to determine the potential behavioral activity of different doses of (E)-4,8-dimethyl-1,3,7-nonatriene alone. The individual (or different doses) HIPVs were loaded into either polyethylene bags or centrifuge tube type of dispensers, and released from the top of the W•H•Y trap chamber. […]

D. maculata [2] = assay: Field trapping Experiment 3, different doses of DMNT alone; format: in vivo, Dolichovespula maculata
Description: as §1
(§3) Experiment 1 (Jul. 22-30, 2009) tested ten synthetic HIPV candidates [(E)-2-hexenal, (Z)-3-hexen-1-ol, (Z)-3-hexenyl acetate, cis-ocimene, linalool, methyl salicylate, geranyl acetate, trans-β-caryophyllene, trans-β-farnesene and (E)-4,8-dimethyl-1,3,7-nonatriene], including several paper wasp EAD-active compounds (see FIG. 2 for details), to determine their potential synergistic effect on the Rescue® W•H•Y trap attractants to paper wasps, yellowjackets, and hornets. Experiment 2 (Aug. 5-13, 2009) tested behavioral responses of the paper wasps and yellowjackets to the Rescue® W•H•Y trap attractants (top attractants only) and its combination with (E)-4,8-dimethyl-1,3,7-nonatriene, one of the EAD-active and behaviorally significant HIPVs, in a dose-response fashion. Experiment 3 (Aug. 5-13, 2009) was conducted to determine the potential behavioral activity of different doses of (E)-4,8-dimethyl-1,3,7-nonatriene alone. The individual (or different doses) HIPVs were loaded into either polyethylene bags or centrifuge tube type of dispensers, and released from the top of the W•H•Y trap chamber. W•H•Y trap attractants (both top and bottom or top only) alone and water (top chamber only) were included in the test as positive and blank controls, respectively. The dispenser types, loading and release rates of the tested semiochemicals are described in Tables 1, 2 and 3.
(§4) Trap catch data were converted to proportion (P) of total captured wasps within each replicate. Data were then transformed by arcsin√P to meet the assumptions of normality and homogeneity of variances for ANOVA. Means were compared by ANOVA followed by the Ryan-Einot-Gabriel-Welsh (REGW) multiple Q test (SPSS 16.0 for Windows) at α=0.05.

V. atropilosa = assay: as above; format: in vivo, Vespula atropilosa
Description: as §1
(§5) Experiment 3 (Aug. 5-13, 2009) was conducted to determine the potential behavioral activity of different doses of (E)-4,8-dimethyl-1,3,7-nonatriene alone. The individual (or different doses) HIPVs were loaded into either polyethylene bags or centrifuge tube type of dispensers, and released from the top of the W•H•Y trap chamber. W•H•Y trap attractants (both top and bottom or top only) alone and water (top chamber only) were included in the test as positive and blank controls, respectively. The dispenser types, loading and release rates of the tested semiochemicals are described in Tables 1, 2 and 3.
as §4

V. pensylvanica = assay: Field trapping Experiment 2, DMNT dose-response with W•H•Y top attractants; format: in vivo, Vespula pensylvanica; settings: Exp 2, DMNT added to WHY top attractant
Description: as §1, §5, §4

D. maculata [3] = assay: as above; format: in vivo, Dolichovespula maculata; settings: Exp 2, DMNT added to WHY top attractant
Description: as §1, §3, §4

P. aurifer = assay: Field trapping Experiment 3, different doses of DMNT alone; format: in vivo, Polistes aurifer
Description: as §1, §5, §4

[4] = test system: paper wasps and yellowjackets; assay: Field trapping bioassays, synergism with AA/2MB (summary); format: in vivo; settings: at the doses tested
Description: as §1, §2

[5] = Exp 3, release rate 0.25, hole 0.5 mm, loading 15 μL
[6] = Exp 3, release rate 0.5, hole 1 mm, loading 30 μL
[7] = Exp 3, release rate 1, hole 2 mm, loading 75 μL
[8] = Exp 3, release rate 1.5, hole 3 mm, loading 175 μL
[9] = Exp 3, release rate 2, hole 5.5 mm, loading 325 μL
[10] = release rate 0.25, hole 0.5 mm, loading 15 μL
[11] = release rate 0.5, hole 1 mm, loading 30 μL
[12] = release rate 1, hole 2 mm, loading 75 μL
[13] = release rate 1.5, hole 3 mm, loading 175 μL
[14] = release rate 2, hole 5.5 mm, loading 325 μL

C=C/C=C(\C)CCC=C(C)C [(E)-4,8-dimethyl-1,3,7-nonatriene]
effect on trap catches of the vespid workers ([1]; 0.5 or 1-1.5 mg/day added to the top attractants, especially V. pensylvanica, V. vulgaris and P. dominulus): significantly increased | effect on the trap catches ([1]; other release rates (doses) added to the top attractants): no effect | effect on trap catches of yellowjackets in the top chambers (yellowjackets): significantly increased | Total Yellowjackets Caught D. maculata (D. maculata [2]; [5]): 0 | Total Yellowjackets Caught D. maculata (D. maculata [2]; [6]): 0 | Total Yellowjackets Caught D. maculata (D. maculata [2]; [7]): 0 | Total Yellowjackets Caught D. maculata (D. maculata [2]; [8]): 0 | Total Yellowjackets Caught D. maculata (D. maculata [2]; [9]): 0 | Total Yellowjackets Caught V. atropilosa (V. atropilosa; [5]): 2 | Total Yellowjackets Caught V. atropilosa (V. atropilosa; [6]): 1 | Total Yellowjackets Caught V. atropilosa (V. atropilosa; [7]): 0 | Total Yellowjackets Caught V. atropilosa (V. atropilosa; [8]): 0 | Total Yellowjackets Caught V. atropilosa (V. atropilosa; [9]): 1 | Total Yellowjackets Caught V. pensylvanica (V. pensylvanica; [10]): 68 | Total Yellowjackets Caught V. pensylvanica (V. pensylvanica; [11]): 90 | Total Yellowjackets Caught V. pensylvanica (V. pensylvanica; [12]): 47 | Total Yellowjackets Caught V. pensylvanica (V. pensylvanica; [13]): 77 | Total Yellowjackets Caught V. pensylvanica (V. pensylvanica; [14]): 46 | Total Yellowjackets Caught D. maculata (D. maculata [3]; [10]): 0 | Total Yellowjackets Caught D. maculata (D. maculata [3]; [11]): 1 | Total Yellowjackets Caught D. maculata (D. maculata [3]; [12]): 1 | Total Yellowjackets Caught D. maculata (D. maculata [3]; [13]): 0 | Total Yellowjackets Caught D. maculata (D. maculata [3]; [14]): 0 | Total Paper Wasps Caught P. aurifer (P. aurifer; [5]): 3 | Total Paper Wasps Caught P. aurifer (P. aurifer; [6]): 1 | Total Paper Wasps Caught P. aurifer (P. aurifer; [7]): 0 | Total Paper Wasps Caught P. aurifer (P. aurifer; [8]): 5 | Total Paper Wasps Caught P. aurifer (P. aurifer; [9]): 0 | synergism of attraction to mixture of acetic acid and 2-methyl-1-butanol [4]: synergize | synergism of attraction to mixture of acetic acid and 2-methyl-1-butanol ([4]; listed as (E)-4,8-dimenthyl-1,3,7-nonatriene): significantly synergize
